In brackets after ≈: the same amount, converted by molar mass.
How the values were obtained:
Human alphaherpesvirus 1 [1] = experiment: Antiviral activity against Human herpesvirus 1 infected African green monkey Vero cells assessed as reduction of virus induced plaque formation after 66 hr; type: functional; details: Human alphaherpesvirus 1, 66 h
Human alphaherpesvirus 1 [2] = experiment: Antiviral activity against Human herpesvirus 1 infected African green monkey Vero cells assessed as reduction of virus induced plaque formation at […] after 66 hr; type: functional; parameters: scale not given: the % may be the effect or the level left
Escherichia coli [3] = experiment: Antibacterial activity against Escherichia coli at 500 ug/disk after 24 hr by disk diffusion method; type: functional; details: read-out: IZ
[4] = Cytotoxicity against Chlorocebus aethiops (African green monkey) Vero cells; type: cell-based; details: chlorocebus sabaeus, read-out: CD50 (the source's name)
Bacillus subtilis [5] = experiment: Antibacterial activity against Bacillus subtilis after 24 hr by agar dilution method; type: functional
Bacillus subtilis [6] = experiment: Antibacterial activity against Bacillus subtilis at 50 ug/ml after 24 hr by disk diffusion method; details: read-out: IZ
Staphylococcus aureus [7] = experiment: Antibacterial activity against Staphylococcus aureus at 50 ug/ml after 24 hr by disk diffusion method; details: read-out: IZ
Staphylococcus aureus [8] = experiment: Antibacterial activity against Staphylococcus aureus after 24 hr by agar dilution method; type: functional
Escherichia coli [9] = experiment: Antibacterial activity against Escherichia coli at 50 ug/ml after 24 hr by disk diffusion method; details: read-out: IZ
Escherichia coli [10] = experiment: Antibacterial activity against Escherichia coli after 24 hr by agar dilution method; type: functional
Staphylococcus aureus [11] = experiment: Antibacterial activity against Staphylococcus aureus at 500 ug/disk after 24 hr by disk diffusion method; type: functional; details: read-out: IZ
Candida albicans [12] = experiment: Antifungal activity against Candida albicans at 500 ug/disk after 72 hr by disk diffusion method; type: functional; details: read-out: IZ
Bacillus subtilis [13] = experiment: Antibacterial activity against Bacillus subtilis at 500 ug/disk after 24 hr by disk diffusion method; type: functional; details: read-out: IZ
Candida albicans [14] = experiment: Antifungal activity against Candida albicans after 48 hr by agar dilution method; type: functional
Candida albicans [15] = experiment: Antifungal activity against Candida albicans at 1000 ug/ml after 72 hr by disk diffusion method; type: functional; details: read-out: IZ

Row | Compound | MIC (Human alphaherpesvirus 1 [1]) | Activity (Human alphaherpesvirus 1 [2]) | zone of inhibition at 500 µg/disc (Escherichia coli [3]) | CC50 [4] | MIC (Escherichia coli [10]) | zone of inhibition at 500 µg/disc (Staphylococcus aureus [11]) | also measured
1 | Cc1ccc2nc(Sc3nnc(-c4cccnc4)o3)c3nnc(N)n3c2c1 | 80 µg/mL (≈ 213 µM) | <25% | 10 mm | 160 µg/mL (≈ 425 µM) | – | – | –
2 | O=C(O)c1cn(C2CC2)c2cc(N3CCNCC3)c(F)cc2c1=O [CIPROFLOXACIN] | – | – | – | – | 57 µg/mL (≈ 172 µM) | – | MIC (Bacillus subtilis [5]): 62 µg/mL (≈ 187 µM); zone of inhibition at 50 µg/mL (Bacillus subtilis [6]): 15 mm; zone of inhibition at 50 µg/mL (Staphylococcus aureus [7]): > 20 mm; MIC (Staphylococcus aureus [8]): 76 µg/mL (≈ 229 µM); zone of inhibition at 50 µg/mL (Escherichia coli [9]): > 20 mm
3 | CCOC(=O)c1cnc2n(nc3c(Cl)nc4ccc(C)cc4n32)c1=O | – | – | – | – | – | 10 mm | –
4 | CCNC(=S)Nc1nnc2c(Cl)nc3ccc(C)cc3n12 | 80 µg/mL (≈ 249 µM) | <25% | 15 mm | 160 µg/mL (≈ 499 µM) | 87 µg/mL (≈ 271 µM) | 15 mm | zone of inhibition at 500 µg/disc (Candida albicans [12]): 20 mm; zone of inhibition at 500 µg/disc (Bacillus subtilis [13]): 10 mm; MIC (Candida albicans [14]): 89 µg/mL (≈ 277 µM); MIC (Staphylococcus aureus [8]): 115 µg/mL (≈ 358 µM)
5 | CC(=O)c1ccc(Nc2nc3ccc(C)cc3n3c(NC(=O)c4ccccc4)nnc23)cc1 | – | – | 15 mm | – | 67 µg/mL (≈ 154 µM) | 15 mm | zone of inhibition at 500 µg/disc (Bacillus subtilis [13]): 10 mm; MIC (Staphylococcus aureus [8]): 94 µg/mL (≈ 215 µM)
6 | Cc1ccc2nc(Cl)c3nnc(NC(=S)Nc4ccccc4)n3c2c1 | 20 µg/mL (≈ 54.2 µM) | 25% | – | 200 µg/mL (≈ 542 µM) | – | – | –
7 | COc1ccc(/C=N/c2nnc3c(Cl)nc4ccc(C)cc4n23)cc1OC | 80 µg/mL (≈ 210 µM) | <25% | – | 160 µg/mL (≈ 419 µM) | – | – | –
8 | Cc1ccc2nc(Sc3nnc(-c4cccs4)n3-c3ccccc3)c3nnc(N)n3c2c1 | 80 µg/mL (≈ 175 µM) | <25% | 20 mm | 160 µg/mL (≈ 350 µM) | 98 µg/mL (≈ 215 µM) | 15 mm | MIC (Bacillus subtilis [5]): 91 µg/mL (≈ 199 µM); zone of inhibition at 500 µg/disc (Candida albicans [12]): 20 mm; zone of inhibition at 500 µg/disc (Bacillus subtilis [13]): 15 mm; MIC (Candida albicans [14]): 78 µg/mL (≈ 171 µM); MIC (Staphylococcus aureus [8]): 124 µg/mL (≈ 272 µM)
9 | Cc1ccc2nc(N3CCN(c4ccccc4C)CC3)c3nnc(NC(=O)c4ccccc4)n3c2c1 | 80 µg/mL (≈ 168 µM) | <25% | – | 160 µg/mL (≈ 335 µM) | – | – | –
10 | Cc1ccc2nc(N3CCN(c4ccccc4C)CC3)c3nnc(N)n3c2c1 | – | – | 10 mm | – | 85 µg/mL (≈ 228 µM) | – | zone of inhibition at 500 µg/disc (Candida albicans [12]): 10 mm; zone of inhibition at 500 µg/disc (Bacillus subtilis [13]): 10 mm
11 | Cc1ccc2nc(N3CCCCC3)c3nnc(NC(=O)c4ccccc4)n3c2c1 | 80 µg/mL (≈ 207 µM) | <25% | 10 mm | 160 µg/mL (≈ 414 µM) | – | 20 mm | zone of inhibition at 500 µg/disc (Candida albicans [12]): 10 mm; MIC (Staphylococcus aureus [8]): 84 µg/mL (≈ 217 µM)
12 | CC(=O)Nc1nnc2c(N3CCN(c4ccccc4C)CC3)nc3ccc(C)cc3n12 | – | – | – | > 200 µg/mL | – | – | –
13 | Clc1ccccc1C(c1ccccc1)(c1ccccc1)n1ccnc1 [CLOTRIMAZOLE] | – | – | – | – | – | – | zone of inhibition at 1000 µg/mL (Candida albicans [15]): > 20 mm; MIC (Candida albicans [14]): 48 µg/mL (≈ 139 µM)
14 | COC(=O)c1cc(=O)n2nc3c(Cl)nc4ccc(C)cc4n3c2n1 | 80 µg/mL (≈ 233 µM) | <25% | – | 160 µg/mL (≈ 465 µM) | – | – | –
15 | Cc1ccc2nc(Sc3nnc(-c4ccccc4O)o3)c3nnc(N)n3c2c1 | 80 µg/mL (≈ 204 µM) | <25% | – | 160 µg/mL (≈ 409 µM) | – | – | –
16 | COc1ccc(/C=N/c2n[nH]c(Sc3nc4ccc(C)cc4n4c(N)nnc34)n2)cc1OC | – | – | 15 mm | – | 102 µg/mL (≈ 221 µM) | 10 mm | zone of inhibition at 500 µg/disc (Candida albicans [12]): 20 mm; zone of inhibition at 500 µg/disc (Bacillus subtilis [13]): 10 mm; MIC (Candida albicans [14]): 112 µg/mL (≈ 243 µM)
17 | C[C@@]1(CO)[C@H](O)CC[C@@]2(C)[C@H]1CC[C@H]1C[C@@H]3C[C@@]12CC[C@]3(O)CO [APHIDICOLIN] | 5 µg/mL (≈ 14.8 µM) | 100% | – | 20 µg/mL (≈ 59.1 µM) | – | – | –
18 | Cc1ccc2nc(Cl)c3nnc(/N=C/c4ccc(O)cc4)n3c2c1 | 80 µg/mL (≈ 237 µM) | <25% | – | 160 µg/mL (≈ 474 µM) | – | – | –
